Laboratory results: publication PMC10120462, “Styrylquinazoline derivatives as ABL inhibitors selective for different DFG orientations” (Journal of Enzyme Inhibition and Medicinal Chemistry, 2023)
Structures can show the parent of a compound that is named as a salt.

How the values were obtained:
BTK = molecular target: T1, BTK (Homo sapiens, UniProt Q06187); assay: Tyrosine kinase assay (Kinase Selectivity System TK-2, ADP-Glo); type: biochemical; settings: 1 h incubation, mean ± SD of four experiments
T1 construct: purchased Promega

Fyn A = molecular target: T2, Fyn A (Homo sapiens, UniProt P06241); assay: as above; type: biochemical; settings: 1 h incubation, mean ± SD of four experiments
T2 construct: purchased Promega
From the text: All newly synthesised derivatives were screened for their inhibitory potential towards eight non-receptor tyrosine kinases, such as ABL, BTK, BRK and Src family kinases, such as CSK, Lyn, Lck, Fyn and Src. […] To facilitate the analysis of the structure and enzymatic activity, all tested compounds were divided into four subgroups based on the main structural scaffolds (the general structure of each group is shown in the second column of Table 1). Series A, B, and C were subdivided according to the S^4-aryl substituent, while D represents the different styryl groups at the C^2-quinazoline position.
Herein, we used a kinase assay that contained fully expressed kinases with their regulatory domains, which are responsible for autoinhibition. The proteins are present in their unphosphorylated form and the procedure required supplementation with ATP. Importantly, autophosphorylation of ABL is dependent on […] concentration of the protein. Thus, our experimental conditions reflect the cellular process to be simulated. The luminescence signal detected after one hour of incubation with a peptide substrate was a measure of inhibition. Under these conditions, the question of whether the inhibitors tested bind to the ortho or allosteric site of the protein could be answered. […] To test this hypothesis, further molecular docking experiments were performed to more precisely determine the binding of the tested compounds to the ABL kinase.
To determine the inhibition of non-receptor tyrosine kinases, assays were performed using the kinase selectivity system TK-2 and the ADP-Glo Kinase Assay (both from Promega). The protocol was previously developed by our group and described in reports[12]^,[36]. Experiments were performed at least four times. Data are expressed as percentage of tyrosine kinase inhibitory activity after treatment with the derivatives tested.

A549 = assay: Cytotoxicity studies (MTS), antiproliferative activity; type: cell-based, human; settings: Homo sapiens, A549; 72 h, MTS
From the text: (§1) In contrast, the other cell lines studied represent common cancers found in the human population. Nevertheless, these cell lines are characterised by a different landscape of kinase expression, as reported in[36]. In chronic leukaemia cells, an aberration of the Philadelphia chromosome is common in which a fragment of chromosome 9 is displaced to chromosome 22, leading to the formation of the oncogenic protein BCR-ABL. The altered structure of the protein leads to abnormal activity that promotes excessive growth and differentiation of cells even in the absence of growth factors, as well as inhibition of apoptosis and formation of metastases. Moreover, the status of the TP53 gene in leukaemia is not insignificant. Mutations of the TP53 gene occur in more than 50% of all cancers, leading to increased metastasis and an overall poor prognosis[38]^,[39]. The p53 protein encoded by this gene plays a pivotal role in controlling cell division or cell fate when damage is detected. […] Therefore, interaction between the signalling network of the BCR-ABL pathway and p53 often results in an impairment of p53 function and survival[43]^,[44]. […] Selectivity studies were performed on normal human fibroblast – NHDF cell line.
(§2) M. Rusin from the Maria Sklodowska-Curie Memorial Cancer Centre and Institute of Oncology in Gliwice, Poland. […] G. Kramer-Marek from the Institute of Cancer Research in London, United Kingdom. The human suspension chronic myeloids leukaemia cell line K562 and the pancreatic ductal adenocarcinoma cell line PANC-1 were purchased from Merck. The normal human dermal fibroblasts cell line NHDF were obtained from PromoCell. All adherent cancer cell lines were cultured in Dulbecco’s Modified Eagle’s medium (DMEM) supplemented with 10% heat-inactivated foetal bovine serum – FBS (all from Merck). […] Each complete medium contained a mixture of two antibiotics - penicillin and streptomycin (1% v/v; Gibco). Cell lines were cultured at 37 °C with 5% CO2 humidified atmosphere.
(§3) The assay was carried out after 72 h of incubation with different concentrations of the tested compounds. Then DMEM without phenol red was added to each well with CellTiter 96®AQueous One Solution-MTS (Promega) solution and incubated for 1 h or 3 h (PANC-1) at 37 °C. The optical densities of the samples were measured at 490 nm using a multi-plate reader (Synergy 4, BioTek). […] Each compound was tested in triplicate in a single experiment and each experiment was performed three or four times.

HCT 116 p53+/+ = assay: as above; type: cell-based, human; settings: Homo sapiens, HCT-116; 72 h, MTS
From the text: as §1, §2, §3

HCT 116 p53−/− = assay: as above; type: cell-based, human; settings: Homo sapiens, HCT-116; 72 h, MTS
From the text: as §1, §2, §3

K562 = assay: as above; type: cell-based, human; settings: Homo sapiens, K562; 72 h, MTS
From the text: as §1, §2, §3

MCF-7 = assay: as above; type: cell-based, human; settings: Homo sapiens, MCF7; 72 h, MTS
From the text: as §1, §2, §3

PANC-1 = assay: as above; type: cell-based, human; settings: Homo sapiens, PANC-1; 72 h, MTS
From the text: as §1, §2, §3

U-251 = assay: as above; type: cell-based, human; settings: Homo sapiens, U-251; 72 h, MTS
From the text: as §1, §2, §3

NHDF = assay: Cytotoxicity studies (MTS), normal fibroblasts; type: cell-based; settings: 72 h, normal human fibroblasts, read-out: Antiproliferative activity IC50 NHDF
From the text: as §1, §2, §3

CSK = molecular target: T3, CSK (Homo sapiens, UniProt P41240); assay: Tyrosine kinase assay (Kinase Selectivity System TK-2, ADP-Glo); type: biochemical; settings: 1 h incubation, mean ± SD of four experiments
T3 construct: purchased Promega

Lyn B = molecular target: T4, Lyn B (Homo sapiens, UniProt P07948); assay: as above; type: biochemical; settings: 1 h incubation, mean ± SD of four experiments
T4 construct: purchased Promega

ABL = molecular target: T5, ABL (Homo sapiens, UniProt P00519); assay: as above; type: biochemical; settings: 1 h incubation, mean ± SD of four experiments
T5 construct: purchased Promega

Lck = molecular target: T6, Lck (Homo sapiens, UniProt P06239); assay: as above; type: biochemical; settings: 1 h incubation, mean ± SD of four experiments
T6 construct: purchased Promega

Src = molecular target: T7, Src (Homo sapiens, UniProt P12931); assay: as above; type: biochemical; settings: 1 h incubation, mean ± SD of four experiments
T7 construct: purchased Promega

BRK = molecular target: T8, BRK (Homo sapiens, UniProt Q13882); assay: as above; type: biochemical; settings: 1 h incubation, mean ± SD of four experiments
T8 construct: purchased Promega
T8 sequence (Q13882 whole entry): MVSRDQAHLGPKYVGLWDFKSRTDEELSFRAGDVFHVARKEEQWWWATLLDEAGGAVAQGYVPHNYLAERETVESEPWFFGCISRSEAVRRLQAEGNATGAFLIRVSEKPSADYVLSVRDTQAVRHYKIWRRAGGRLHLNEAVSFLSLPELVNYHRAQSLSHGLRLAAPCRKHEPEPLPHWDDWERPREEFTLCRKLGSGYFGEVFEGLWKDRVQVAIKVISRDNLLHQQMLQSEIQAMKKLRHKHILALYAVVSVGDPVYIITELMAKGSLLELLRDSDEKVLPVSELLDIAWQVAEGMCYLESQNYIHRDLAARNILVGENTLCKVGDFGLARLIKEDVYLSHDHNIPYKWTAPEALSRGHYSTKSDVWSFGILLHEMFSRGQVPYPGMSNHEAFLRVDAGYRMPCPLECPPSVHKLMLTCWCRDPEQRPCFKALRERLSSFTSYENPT

T6 sequence (P06239 whole entry): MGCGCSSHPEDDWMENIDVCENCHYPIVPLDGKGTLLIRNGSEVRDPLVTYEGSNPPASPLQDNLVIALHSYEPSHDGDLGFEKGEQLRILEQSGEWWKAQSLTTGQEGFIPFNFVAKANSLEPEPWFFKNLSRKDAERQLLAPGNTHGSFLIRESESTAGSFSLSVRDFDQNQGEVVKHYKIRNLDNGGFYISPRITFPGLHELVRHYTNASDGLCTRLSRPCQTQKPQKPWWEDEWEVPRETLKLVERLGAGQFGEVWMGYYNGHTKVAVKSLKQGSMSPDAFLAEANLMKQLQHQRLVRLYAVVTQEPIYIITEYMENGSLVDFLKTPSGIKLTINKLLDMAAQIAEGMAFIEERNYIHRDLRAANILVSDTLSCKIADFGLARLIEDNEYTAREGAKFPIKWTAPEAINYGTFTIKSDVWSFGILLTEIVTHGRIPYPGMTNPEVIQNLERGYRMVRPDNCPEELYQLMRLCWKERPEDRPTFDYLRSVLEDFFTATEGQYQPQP
T2 sequence (P06241 whole entry): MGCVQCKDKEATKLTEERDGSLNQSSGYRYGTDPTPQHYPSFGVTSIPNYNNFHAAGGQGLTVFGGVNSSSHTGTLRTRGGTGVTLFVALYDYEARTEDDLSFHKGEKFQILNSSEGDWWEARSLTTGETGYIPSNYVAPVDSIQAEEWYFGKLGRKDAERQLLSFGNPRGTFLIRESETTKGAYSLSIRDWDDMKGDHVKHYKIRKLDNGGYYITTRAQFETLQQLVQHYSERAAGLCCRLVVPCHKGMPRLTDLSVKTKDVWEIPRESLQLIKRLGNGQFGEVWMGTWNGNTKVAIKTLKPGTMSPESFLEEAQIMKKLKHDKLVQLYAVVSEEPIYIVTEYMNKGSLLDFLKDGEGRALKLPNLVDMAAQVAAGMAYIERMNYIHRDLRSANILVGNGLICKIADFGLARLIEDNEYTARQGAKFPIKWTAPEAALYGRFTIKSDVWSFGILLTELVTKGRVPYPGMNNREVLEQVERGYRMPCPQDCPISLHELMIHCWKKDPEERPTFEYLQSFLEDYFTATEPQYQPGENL
T5 sequence (P00519 whole entry): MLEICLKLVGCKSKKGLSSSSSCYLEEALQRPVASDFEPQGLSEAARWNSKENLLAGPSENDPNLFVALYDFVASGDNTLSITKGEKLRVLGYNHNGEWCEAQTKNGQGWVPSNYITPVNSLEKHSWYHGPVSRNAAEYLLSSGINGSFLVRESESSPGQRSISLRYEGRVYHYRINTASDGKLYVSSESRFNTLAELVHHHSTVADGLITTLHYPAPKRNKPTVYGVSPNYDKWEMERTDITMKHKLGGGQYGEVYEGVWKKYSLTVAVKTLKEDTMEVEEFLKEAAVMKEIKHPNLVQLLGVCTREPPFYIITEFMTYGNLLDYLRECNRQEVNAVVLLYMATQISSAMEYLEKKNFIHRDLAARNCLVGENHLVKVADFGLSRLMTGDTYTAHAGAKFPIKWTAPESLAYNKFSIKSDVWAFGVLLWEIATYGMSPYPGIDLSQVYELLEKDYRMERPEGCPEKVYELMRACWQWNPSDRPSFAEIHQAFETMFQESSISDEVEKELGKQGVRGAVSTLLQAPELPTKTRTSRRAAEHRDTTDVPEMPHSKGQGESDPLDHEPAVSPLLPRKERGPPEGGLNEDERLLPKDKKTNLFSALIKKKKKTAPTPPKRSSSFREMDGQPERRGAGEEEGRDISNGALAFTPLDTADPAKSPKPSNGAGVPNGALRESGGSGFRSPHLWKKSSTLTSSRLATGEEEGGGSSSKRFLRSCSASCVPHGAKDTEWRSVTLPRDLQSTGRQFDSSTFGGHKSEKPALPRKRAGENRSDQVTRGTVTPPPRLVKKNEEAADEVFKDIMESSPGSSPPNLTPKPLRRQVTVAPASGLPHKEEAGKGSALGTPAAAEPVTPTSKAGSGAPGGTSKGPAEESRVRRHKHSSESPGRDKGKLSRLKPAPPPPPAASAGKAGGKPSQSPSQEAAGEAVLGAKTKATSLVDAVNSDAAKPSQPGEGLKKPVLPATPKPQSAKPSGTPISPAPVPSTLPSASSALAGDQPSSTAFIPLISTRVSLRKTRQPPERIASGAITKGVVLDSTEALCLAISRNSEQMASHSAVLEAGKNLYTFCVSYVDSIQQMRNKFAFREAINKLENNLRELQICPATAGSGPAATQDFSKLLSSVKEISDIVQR
T7 sequence (P12931 whole entry): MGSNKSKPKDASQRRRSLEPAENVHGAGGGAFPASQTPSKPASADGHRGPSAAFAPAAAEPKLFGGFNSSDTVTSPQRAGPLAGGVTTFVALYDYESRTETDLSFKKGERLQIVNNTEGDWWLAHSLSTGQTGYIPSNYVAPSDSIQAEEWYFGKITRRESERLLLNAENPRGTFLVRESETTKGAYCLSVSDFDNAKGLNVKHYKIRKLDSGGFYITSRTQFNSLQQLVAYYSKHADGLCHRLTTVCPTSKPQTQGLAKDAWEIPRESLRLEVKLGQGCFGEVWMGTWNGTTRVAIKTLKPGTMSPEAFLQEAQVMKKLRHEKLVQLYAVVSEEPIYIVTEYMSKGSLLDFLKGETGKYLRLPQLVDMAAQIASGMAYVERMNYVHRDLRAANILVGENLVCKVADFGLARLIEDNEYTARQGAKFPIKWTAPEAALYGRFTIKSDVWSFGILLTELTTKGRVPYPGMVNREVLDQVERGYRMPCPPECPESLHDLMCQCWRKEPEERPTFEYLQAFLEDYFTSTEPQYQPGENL
T1 sequence (Q06187 whole entry): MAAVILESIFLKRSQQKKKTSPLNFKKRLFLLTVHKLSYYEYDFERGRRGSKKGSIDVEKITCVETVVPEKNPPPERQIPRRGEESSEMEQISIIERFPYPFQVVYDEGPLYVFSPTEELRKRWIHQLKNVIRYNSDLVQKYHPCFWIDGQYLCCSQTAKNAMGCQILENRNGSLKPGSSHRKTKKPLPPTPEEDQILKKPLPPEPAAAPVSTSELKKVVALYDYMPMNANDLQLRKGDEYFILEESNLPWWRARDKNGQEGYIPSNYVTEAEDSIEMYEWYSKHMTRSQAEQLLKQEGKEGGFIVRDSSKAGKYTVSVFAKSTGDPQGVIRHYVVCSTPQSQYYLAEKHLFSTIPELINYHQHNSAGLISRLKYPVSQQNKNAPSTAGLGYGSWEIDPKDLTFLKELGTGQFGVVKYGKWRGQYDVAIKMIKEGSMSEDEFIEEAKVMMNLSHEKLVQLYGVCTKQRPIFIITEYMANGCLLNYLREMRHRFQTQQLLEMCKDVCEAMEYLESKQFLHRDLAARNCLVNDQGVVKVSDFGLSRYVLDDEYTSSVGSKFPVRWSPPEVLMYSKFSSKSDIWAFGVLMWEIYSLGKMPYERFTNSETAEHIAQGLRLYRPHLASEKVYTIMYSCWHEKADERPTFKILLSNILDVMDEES
T4 sequence (P07948 1-491 isoform P07948-2): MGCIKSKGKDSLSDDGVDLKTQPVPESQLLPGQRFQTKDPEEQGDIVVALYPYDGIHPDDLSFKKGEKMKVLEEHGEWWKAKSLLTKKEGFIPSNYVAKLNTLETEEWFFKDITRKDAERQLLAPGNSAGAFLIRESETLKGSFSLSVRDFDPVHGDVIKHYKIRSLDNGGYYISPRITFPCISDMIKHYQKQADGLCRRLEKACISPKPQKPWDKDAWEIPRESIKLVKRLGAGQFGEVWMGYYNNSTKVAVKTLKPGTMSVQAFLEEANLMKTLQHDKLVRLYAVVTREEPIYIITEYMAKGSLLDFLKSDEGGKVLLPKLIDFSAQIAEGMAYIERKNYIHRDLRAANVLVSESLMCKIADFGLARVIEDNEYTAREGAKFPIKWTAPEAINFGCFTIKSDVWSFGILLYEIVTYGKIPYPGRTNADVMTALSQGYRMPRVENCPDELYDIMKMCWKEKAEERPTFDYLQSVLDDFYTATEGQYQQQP

SMILES | inhibition at 0.5 µM (BTK) | inhibition at 0.5 µM (Fyn A) | inhibition at 0.5 µM (CSK) | inhibition at 0.5 µM (Lyn B) | inhibition at 0.5 µM (ABL) | Inhibition of tyrosine kinase activity [%] Fyn A (Fyn A; 0.5 μM) | Inhibition of tyrosine kinase activity [%] Lck (Lck; 0.5 μM) | inhibition at 0.5 µM (Lck) | Inhibition of tyrosine kinase activity [%] Src (Src; 0.5 μM) | inhibition at 0.5 µM (Src) | inhibition at 0.5 µM (BRK) | Inhibition of tyrosine kinase activity [%] BTK (BTK; 0.5 μM) | IC50 (A549) | IC50 (HCT 116 p53+/+) | IC50 (HCT 116 p53−/−) | IC50 (K562) | IC50 (MCF-7) | IC50 (PANC-1) | IC50 (U-251) | IC50 (NHDF)
COc1ccc(/C=C/c2nc(NCCCN(C)C)c3ccccc3n2)cc1 [CP-31398, N'-[2-[2–(4-methoxyphenyl)ethenyl]-4-quinazolinyl]-N,N-dimethyl-1,3-propanediamine dihydrochloride, reference compound] | 36.8 ± 3.66% | 30.6 ± 7.83% | – | – | – | – | – | – | – | – | – | – | > 25 µM | 18.6 ± 0.92 µM | 26.3 ± 1.41 µM | 3.09 ± 0.36 µM | 27 ± 2.1 µM | > 25 µM | 18.8 ± 1.65 µM | 12.3 ± 0.54 µM
Cc1nc(Nc2ncc(C(=O)Nc3c(C)cccc3Cl)s2)cc(N2CCN(CCO)CC2)n1 [Dasatinib, dasatinib, reference compound] | – | 92.3 ± 2.55% | 94.2 ± 1.28% | 97.5 ± 1.49% | – | – | – | – | – | – | – | – | – | – | – | – | – | – | – | –
COc1ccccc1/C=C/c1nc(Sc2cc(Cl)ccc2Cl)c2ccccc2n1 [IS3, 2-[(E)-2–(2-methoxyphenyl)ethenyl]-4–(2,5-dichlorophenylthio)quinazoline] | 31.6 ± 2.38% | 60 ± 2.85% | 35 ± 1.11% | 26.2 ± 1.55% | 4.02 ± 3.58% | – | – | 13.4 ± 5.58% | – | 0% | 0% | – | – | > 25 µM | > 25 µM | > 25 µM | > 25 µM | – | – | –
COc1ccccc1/C=C/c1nc(Sc2ccccc2Br)c2ccccc2n1 [IS4, 2-[(E)-2–(2-methoxyphenyl)ethenyl]-4–(2-bromophenylthio)quinazoline] | 45.9 ± 7.54% | 34.1 ± 2.53% | 17.4 ± 6.31% | 3.39 ± 0.47% | 29.8 ± 0.95% | – | – | 0% | – | 18.5 ± 1.07% | 0% | moderate activity | > 15 µM | > 10 µM | > 10 µM | > 15 µM | – | > 25 µM | > 15 µM | > 25 µM
COc1ccccc1/C=C/c1nc(Sc2ccccc2C(F)(F)F)c2ccccc2n1 [IS6, 2-[(E)-2–(2-methoxyphenyl)ethenyl]-4-[2-(trifluoromethyl)phenylthio]quinazoline] | – | 26.1 ± 8.39% | 0% | 1.39 ± 0.41% | 1.18 ± 0.17% | – | – | 0% | – | 43.8 ± 9.07% | – | – | – | > 25 µM | – | > 25 µM | > 25 µM | > 25 µM | > 25 µM | –
COc1ccccc1/C=C/c1nc(Sc2ccccc2Cl)c2ccc(Cl)cc2n1 [IS12, 2-[(E)-2–(2-methoxyphenyl)ethenyl]-7-chloro-4–(2-chlorophenylthio)quinazoline] | 15.4 ± 4.19% | 0% | 0% | 0% | 0% | – | – | 0% | – | 0% | 0% | – | > 25 µM | > 25 µM | > 25 µM | > 25 µM | > 25 µM | – | > 25 µM | –
COc1ccccc1/C=C/c1nc(Sc2ccccn2)c2ccc(Cl)cc2n1 [IS14, 2-[(E)-2–(2-methoxyphenyl)ethenyl]-7-chloro-4-(pyrid-2-ylthio)quinazoline] | – | 16 ± 7.94% | 0% | 0% | 7.64 ± 0.7% | – | – | 14.8 ± 6.02% | – | 40.5 ± 9.17% | – | – | – | > 25 µM | – | 21.6 ± 2.1 µM | > 25 µM | > 25 µM | > 25 µM | –

The next lines start with results.

inhibition at 0.5 µM (BTK) | inhibition at 0.5 µM (Fyn A) | inhibition at 0.5 µM (CSK) | inhibition at 0.5 µM (Lyn B) | inhibition at 0.5 µM (ABL) | Inhibition of tyrosine kinase activity [%] Fyn A (Fyn A; 0.5 μM) | Inhibition of tyrosine kinase activity [%] Lck (Lck; 0.5 μM) | inhibition at 0.5 µM (Lck) | Inhibition of tyrosine kinase activity [%] Src (Src; 0.5 μM) | inhibition at 0.5 µM (Src) | inhibition at 0.5 µM (BRK) | Inhibition of tyrosine kinase activity [%] BTK (BTK; 0.5 μM) | SMILES | IC50 (A549) | IC50 (HCT 116 p53+/+) | IC50 (HCT 116 p53−/−) | IC50 (K562) | IC50 (MCF-7) | IC50 (PANC-1) | IC50 (U-251) | IC50 (NHDF)
– | 52% | 62.1 ± 4.45% | 38.4 ± 8.58% | 25.2 ± 3.69% | 52.32 ± 7.04% | 73.92 ± 9.72% | ~74% | 58.56 ± 4.80% | 58% | – | – | COc1ccccc1/C=C/c1nc(Sc2cccc(Cl)c2)c2ccccc2n1 [IS2, 2-[(E)-2–(2-methoxyphenyl)ethenyl]-4–(3-chlorophenylthio)quinazoline] | – | 23.8 ± 5.32 µM | – | 24.8 ± 2.45 µM | 19.7 ± 1.13 µM | 25.1 ± 1.44 µM | > 25 µM | –
– | 3.77 ± 1.21% | 23.1 ± 5.24% | 7.67 ± 3.28% | 18.5 ± 1.59% | – | – | 37 ± 7.87% | – | 28.2 ± 5.41% | – | – | COc1ccccc1/C=C/c1nc(Sc2ccccc2F)c2ccccc2n1 [IS5, 2-[(E)-2–(2-methoxyphenyl)ethenyl]-4–(2-fluorophenylthio)quinazoline] | – | > 25 µM | – | > 25 µM | > 25 µM | > 25 µM | > 25 µM | –
0% | 0% | 0% | 0% | 0% | – | – | 0% | – | 0% | 0% | – | COc1cccc(Sc2nc(/C=C/c3ccccc3OC)nc3cc(Cl)ccc23)c1 [IS13, 2-[(E)-2–(2-methoxyphenyl)ethenyl]-7-chloro-4–(3-methoxyphenylthio)quinazoline] | > 25 µM | > 25 µM | > 25 µM | > 25 µM | > 25 µM | – | > 25 µM | –
– | 17.3 ± 4.47% | 0% | 13.8 ± 1% | 11.7 ± 4.03% | – | – | 66.5 ± 7.49% | – | 26.1 ± 6.03% | – | – | COc1ccc(/C=C/c2nc(Sc3ccccc3Cl)c3ccccc3n2)cc1 [IS18, 2-[(E)-2–(4-methoxyphenyl)ethenyl]-4–(2-chlorophenylthio)quinazoline] | – | 11.1 ± 1.37 µM | – | > 25 µM | 10.6 ± 1.38 µM | 12 ± 1.2 µM | 10.3 ± 0.818 µM | –
